Results: ChEMBL document CHEMBL1201862, “PubChem BioAssay data set” (2004)
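Results reflect a 48-hour exposure of cells in 96-well plates to compound at five concentrations. GI50 marks 50% less growth.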 The source made the active and inactive calls. No stated cut-off is given here; in the data, active = GI50 up to about 1.1 µM and inactive = higher.

How the values were obtained:
Test in all cases: inhibition of tumour cell growth, NCI panel, 48 h
Hs-578T = test system: Hs-578T
SK-MEL-28 = test system: SK-MEL-28
HCT-15 = test system: HCT-15
TK-10 = test system: TK-10
T47D = test system: T47D
SK-MEL-5 = test system: SK-MEL-5
Malme-3M = test system: Malme-3M
MDA-MB-435 = test system: MDA-MB-435
SF-295 = test system: SF-295
SR = test system: SR
OVCAR-4 = test system: OVCAR-4
UO-31 = test system: UO-31
LOX IMVI = test system: LOX IMVI
786-0 = test system: 786-0
DU-145 = test system: DU-145
M14 = test system: M14
NCI-H23 = test system: NCI-H23
SN12C = test system: SN12C
K562 = test system: K562

SMILES | GI50 (Hs-578T) | GI50 (SK-MEL-28) | GI50 (HCT-15) [µM] | GI50 (TK-10) | GI50 (T47D) | GI50 (SK-MEL-5) | GI50 (Malme-3M) | GI50 (MDA-MB-435) | GI50 (SF-295) | GI50 (SR) | GI50 (OVCAR-4) | GI50 (UO-31) | GI50 (LOX IMVI) | GI50 (786-0) | GI50 (DU-145) | GI50 (M14) | GI50 (NCI-H23) | GI50 (SN12C) | GI50 (K562)
CC1=NN(c2nc(N)nc(/C(C#N)=C/c3ccc([N+](=O)[O-])o3)n2)C(C)(C)C1 | 13.2 µM (inactive) | 5.06 µM (inactive) | 1.42 | 2 µM (inactive) | 2.61 µM (inactive) | 5.4 µM (inactive) | 2.01 µM (inactive) | 2.39 µM (inactive) | 16.5 µM (inactive) | 2.58 µM (inactive) | 10.2 µM (inactive) | 2.92 µM (inactive) | 1.73 µM (inactive) | 1.57 µM (inactive) | 6.35 µM (inactive) | 1.57 µM (inactive) | 3.45 µM (inactive) | 1.88 µM (inactive) | 0.315 µM (active)
COc1cc2cc(C(=O)N3CC(CCl)c4c3cc(O)c3ccccc43)[nH]c2c(OC)c1OC (centres undefined) | < 0.005 µM (active) | < 0.005 µM (active) | < 0.005 | < 0.005 µM (active) | < 0.005 µM (active) | < 0.005 µM (active) | < 0.005 µM (active) | < 0.005 µM (active) | < 0.005 µM (active) | < 0.005 µM (active) | < 0.005 µM (active) | < 0.005 µM (active) | < 0.005 µM (active) | < 0.005 µM (active) | < 0.005 µM (active) | < 0.005 µM (active) | < 0.005 µM (active) |  | < 0.005 µM (active)
COC(=O)[C@@H]1[C@@H]2NC(=S)N[C@@]1(C)Oc1ccccc12 | 51.9 µM (inactive) | > 100 µM (inactive) | 32.1 | > 100 µM (inactive) | > 100 µM (inactive) | 42 µM (inactive) | 52 µM (inactive) | 10.1 µM (inactive) | 38.5 µM (inactive) | 95.3 µM (inactive) | > 100 µM (inactive) | > 100 µM (inactive) | 37.6 µM (inactive) | 75.7 µM (inactive) | 36.3 µM (inactive) | 42.8 µM (inactive) | 42.6 µM (inactive) | 46.2 µM (inactive) | 29.5 µM (inactive)
CCCCC1=C(C(=O)N2CCOCC2)C2(OCCO2)C1=O | 31.7 µM (inactive) | 27.5 µM (inactive) | 18.2 | 33.3 µM (inactive) | 33.9 µM (inactive) | 16.5 µM (inactive) | 20.6 µM (inactive) | 18.5 µM (inactive) | 32.5 µM (inactive) | 83.8 µM (inactive) | 23.1 µM (inactive) | 15.5 µM (inactive) | 12.8 µM (inactive) | 18.2 µM (inactive) | 33 µM (inactive) | 17.8 µM (inactive) | 18.3 µM (inactive) | 13.5 µM (inactive) | 
CC(C)OP(=O)(OC(C)C)C(C)(C)O | > 100 µM (inactive) | > 100 µM (inactive) | > 100 | > 100 µM (inactive) | > 100 µM (inactive) | > 100 µM (inactive) | > 100 µM (inactive) | > 100 µM (inactive) | > 100 µM (inactive) | > 100 µM (inactive) | > 100 µM (inactive) | > 100 µM (inactive) | > 100 µM (inactive) | > 100 µM (inactive) | > 100 µM (inactive) | > 100 µM (inactive) | > 100 µM (inactive) | > 100 µM (inactive) | > 100 µM (inactive)
Cn1c(=O)c2c(nc(N3CCOCC3)n2CCCNCC(O)c2ccc(O)c(O)c2)n(C)c1=O (centres undefined) | > 100 µM (inactive) | > 100 µM (inactive) | > 100 | > 100 µM (inactive) | > 100 µM (inactive) | > 100 µM (inactive) | > 100 µM (inactive) | 38.9 µM (inactive) | > 100 µM (inactive) | 10 µM (inactive) | > 100 µM (inactive) | > 100 µM (inactive) | > 100 µM (inactive) | > 100 µM (inactive) | > 100 µM (inactive) | > 100 µM (inactive) | > 100 µM (inactive) | 81.8 µM (inactive) | > 100 µM (inactive)
CC(C)(C)[Si](C)(C)OCc1cccc(OCCOc2cccc(CO[Si](C)(C)C(C)(C)C)c2[N+](=O)[O-])c1[N+](=O)[O-] | > 100 µM (inactive) | > 100 µM (inactive) | > 100 | > 100 µM (inactive) | > 100 µM (inactive) | > 100 µM (inactive) | > 100 µM (inactive) | > 100 µM (inactive) | > 100 µM (inactive) | 66.2 µM (inactive) | > 100 µM (inactive) | > 100 µM (inactive) | > 100 µM (inactive) | > 100 µM (inactive) | > 100 µM (inactive) | > 100 µM (inactive) | > 100 µM (inactive) | > 100 µM (inactive) | 
CC(=O)Nc1ccc2cc3[nH]c4cc(NC(C)=O)ccc4c3nc2c1 | > 100 µM (inactive) | > 100 µM (inactive) | > 100 | > 100 µM (inactive) | 31.3 µM (inactive) | > 100 µM (inactive) | > 100 µM (inactive) | > 100 µM (inactive) | > 100 µM (inactive) | 61.1 µM (inactive) | > 100 µM (inactive) | > 100 µM (inactive) | > 100 µM (inactive) | > 100 µM (inactive) | > 100 µM (inactive) | > 100 µM (inactive) | > 100 µM (inactive) | > 100 µM (inactive) | 77.1 µM (inactive)
